According to patent US20260069584A1, “METHODS OF TREATING CHRONIC MYELOID LEUKEMIA USING THE TYROSINE KINASE INHIBITOR VODOBATINIB” (Sun Pharma Advanced Research Company Ltd., priority 2022, published 2026):

System: CP CML
Assay: Part B: disease response in CP CML subjects
Type: in vivo, human
Details: for Complete Molecular Response, Best Response / Complete cytogenetic response, Best Response / Cytogenetic response: Minimal response, Best Response / Cytogenetic response: Minor response, Best Response / Cytogenetic response: No response, Best Response / Hematological response: CHR, Best Response / Hematological response: No response, Best Response / Major cytogenetic response, Best Response / Major molecular response, Best Response / Molecular response: No response, Best Response / Partial cytogenetic response, Best Response: number of patients
Source text: This was a Phase I/2, open-label, single-agent, multicenter, multi-dose, dose-escalation study in subjects with Philadelphia chromosome-positive Ph+ CML (CP CML, AP CML and BP CML) and Ph+ ALL. The primary objectives of this study were to determine the maximum tolerated dose (MTD; or recommended Phase 2 dose [RP2D]) of the compound of Formula I when administered orally and to evaluate its safety.
In this study, the dose-escalation cohort started with an accelerated titration study design (ATD) and shifted to a 3±3 design when subjects in the preceding ATD cohort experienced either grade 2 or higher adverse events (AEs) or dose-limiting toxicity (DLT) during Cycle 1 that was not clearly and incontrovertibly related to the underlying disease or concomitant medications. The DLT period consisted of 28 days (Cycle 1). Subjects experiencing DLTs were managed with dose delays and/or discontinuation and continued in the study until disease progression. Decisions to advance to a succeeding dose level occurred after the evaluation of safety and tolerability data for a given dose level.
Accordingly, the eligible subjects were treated in 4-week cycles of once daily self-administration of the compound of Formula I. The administration was after an overnight fast, or after maintaining approximately 2 hours of fasting before and after the dosing in all cycles.
For the cohorts, where the 3±3 design applies, 3 subjects were enrolled initially. If 2 of these subjects experienced a Grade 2 or more toxicity (that was not clearly and incontrovertibly related to the underlying disease or concomitant medications), subsequent cohorts were escalated according to smaller increments. Further, if there were no DLTs in the first 3 subjects, dose escalation to the next higher dose level was allowed to proceed. If 1 of the 3 subjects experienced a DLT, that dose level was expanded to 6 subjects (3 additional subjects were enrolled). If 2 subjects at a given dose level experienced a DLT, the MTD was considered to have been exceeded. The next lower dose level was expanded to 6 subjects, or if 6 subjects had already been enrolled and no more than 1 of the 6 subjects experienced a DLT, then this lower dose level was considered the MTD. Additional subjects were enrolled in dose escalation cohorts for further assessment of safety and efficacy of the compound of Formula 1 at doses that were tolerated (i.e., doses that have <2 DLTs in 6 enrolled subjects or <1 DLT in 3 enrolled subjects). Thus 204 mg was arrived at as MTD. A subject experiencing a DLT was allowed to continue therapy with a reduced dose. Subjects who experienced a DLT and recovered were treated at the next lower dose level until disease progression or other events requiring further dose reduction existed. For cohorts at Dose Level 2 or higher, a further dose reduction (i.e., up to 2 levels lower than their originally assigned dose) was implemented in the case of a further DLT or other non-DLT events requiring a dose reduction, if and when the event leading to dose reduction returned to Grade 1 or lower in severity. The reduced dose was re-escalated to the original or higher dose (i.e., the dose for which safety had been established in the dose escalation cohort) considering subject safety and response to the compound of Formula I. The subject was discontinued from treatment using the compound of Formula I, if dose reduction below 48 mg was required.
The study was conducted over a period of 60 months (5 years) which was divided in 28-days cycle. In the first two cycles, the dose administration was started on day 1 and the subject's assessments were performed on day 1, day 2, day 3, day 8, day 15 and day 22. From Cycle 3 onwards, the assessments were performed every 3 months (i.e., on day 28 of Cycle 3, followed by day 28 of Cycle 6 which was further followed by day 28 of Cycle 9). […]

[1] = 16 CP CML patients with prior ponatinib
[2] = prior ponatinib, 48 mg (N = 1) ESC
[3] = prior ponatinib, 66 mg (N = 2) ESC
[4] = prior ponatinib, 90 mg (N = 2) ESC
[5] = prior ponatinib, 126 mg (N = 1) ESC
[6] = prior ponatinib, 174 mg (N = 5) ESC
[7] = prior ponatinib, 204 mg (N = 3) ESC
[8] = prior ponatinib, 240 mg (N = 2) ESC

Structure (SMILES): Cc1ccc(C(=O)NNC(=O)c2c(C)cccc2Cl)cc1C#Cc1cnc2ccccc2c1 [compound of Formula I, N′-(2-chloro-6-methylbenzoyl)-4-methyl-3-[2-(3-quinolyl)ethynyl]-benzohydrazide]
- Best Hematologic Response: No Response (204 mg (N = 6) ESC): 0
- Best Molecular Response: Complete Response (204 mg (N = 6) ESC): 1(16.7)
- Best Molecular Response: Major Response (204 mg (N = 6) ESC): 3(50.0)
- Best Molecular Response: No Response (204 mg (N = 6) ESC): 3(50.0)
- Best Cytogenetic Response: Complete Response (240 mg (N = 3) ESC): 3(100)
- Best Cytogenetic Response: Major Cytogenetic Response (240 mg (N = 3) ESC): 3(100)
- Best Cytogenetic Response: Minimal Response (240 mg (N = 3) ESC): 0
- Best Cytogenetic Response: Minor Response (240 mg (N = 3) ESC): 0
- Best Cytogenetic Response: No Response (240 mg (N = 3) ESC): 0
- Best Cytogenetic Response: Partial Response (240 mg (N = 3) ESC): 0
- Best Hematologic Response: Complete Response (240 mg (N = 3) ESC): 2(66.7)
- Best Hematologic Response: Major Hematologic Response (240 mg (N = 3) ESC): 2(66.7)
- Best Hematologic Response: No Evidence of Leukemia (240 mg (N = 3) ESC): 0
- Best Hematologic Response: No Response (240 mg (N = 3) ESC): 0
- Best Molecular Response: Complete Response (240 mg (N = 3) ESC): 1(33.3)
- Best Molecular Response: Major Response (240 mg (N = 3) ESC): 3(100)
- Best Molecular Response: No Response (240 mg (N = 3) ESC): 0
- MMR achieved (8 patients out of 17, prior ponatinib): 47%
- Major Cytogenetic Response (MCyR, both PCyR+ CCyR) (11 of 16 CP CML patients with prior ponatinib): 68.8%
- Achieved MCyR [1]: 6 patients
- Maintained MCyR [1]: 5 patients
- Complete Molecular Response, Best Response (ASC (N = 3)): 0
- Complete cytogenetic response, Best Response (ASC (N = 3)): 1
- Cytogenetic response: Minimal response, Best Response (ASC (N = 3)): 0
- Cytogenetic response: Minor response, Best Response (ASC (N = 3)): 1
- Cytogenetic response: No response, Best Response (ASC (N = 3)): 1
- Hematological response: CHR, Best Response (ASC (N = 3)): 3
- Hematological response: No response, Best Response (ASC (N = 3)): 0
- Major cytogenetic response, Best Response (ASC (N = 3)): 1
- Major molecular response, Best Response (ASC (N = 3)): 0
- Molecular response: No response, Best Response (ASC (N = 3)): 3
- Partial cytogenetic response, Best Response (ASC (N = 3)): 0
- Complete Molecular Response, Best Response (PON (N = 15)): 4
- Complete cytogenetic response, Best Response (PON (N = 15)): 7
- Cytogenetic response: Minimal response, Best Response (PON (N = 15)): 1
- Cytogenetic response: Minor response, Best Response (PON (N = 15)): 1
- Cytogenetic response: No response, Best Response (PON (N = 15)): 2
- Hematological response: CHR, Best Response (PON (N = 15)): 12
- Hematological response: No response, Best Response (PON (N = 15)): 3
- Major cytogenetic response, Best Response (PON (N = 15)): 10
- Major molecular response, Best Response (PON (N = 15)): 8
- Molecular response: No response, Best Response (PON (N = 15)): 7
- Partial cytogenetic response, Best Response (PON (N = 15)): 3
- Best Cytogenetic Response: Complete Response (Total (N = 30) ESC): 17(56.7)
- Best Cytogenetic Response: Major Cytogenetic Response (Total (N = 30) ESC): 20(66.7)
- Best Cytogenetic Response: Minimal Response (Total (N = 30) ESC): 4(13.3)
- Best Cytogenetic Response: Minor Response (Total (N = 30) ESC): 1(3.3)
- Best Cytogenetic Response: No Response (Total (N = 30) ESC): 3(10.0)
- Best Cytogenetic Response: Partial Response (Total (N = 30) ESC): 3(10.0)
- Best Hematologic Response: Complete Response (Total (N = 30) ESC): 24(80.0)
- Best Hematologic Response: Major Hematologic Response (Total (N = 30) ESC): 24(80.0)
- Best Hematologic Response: No Evidence of Leukemia (Total (N = 30) ESC): 0
- Best Hematologic Response: No Response (Total (N = 30) ESC): 4(13.3)
- Best Molecular Response: Complete Response (Total (N = 30) ESC): 7(23.3)
- Best Molecular Response: Major Response (Total (N = 30) ESC): 14(46.7)
- Best Molecular Response: No Response (Total (N = 30) ESC): 14(46.7)
- CCyR as best response (more than 3 prior TKIs including ponatinib): 46.7%
- CCyR as best response (more than 3 prior TKIs including ponatinib and asciminib): 33.3%
- Major cytogenetic response as best response (ponatinib group): 66.7%
- Major cytogenetic response as best response (ponatinib plus asciminib group): 33.3%
- Achieved MCyR [2]: 0
- Achieved MMR [2]: 1(100)
- MCyR [2]: 1(100)
- Maintained MCyR [2]: 1(100)
- Maintained MMR [2]: 0
- Achieved MCyR [3]: 1(50.0)
- Achieved MMR [3]: 0
- MCyR [3]: 1(50.0)
- Maintained MCyR [3]: 0
- Maintained MMR [3]: 0
- Achieved MCyR [4]: 1(50.0)
- Achieved MMR [4]: 1(50.0)
- MCyR [4]: 1(50.0)
- Maintained MCyR [4]: 0
- Maintained MMR [4]: 0
- Achieved MCyR [5]: 0
- Achieved MMR [5]: 0
- MCyR [5]: 0
- Maintained MCyR [5]: 0
- Maintained MMR [5]: 0
- Achieved MCyR [6]: 1(20.0)
- Achieved MMR [6]: 3(60.0)
- MCyR [6]: 3(60.0)
- Maintained MCyR [6]: 2(40.0)
- Maintained MMR [6]: 0
- Achieved MCyR [7]: 2(66.7)
- Achieved MMR [7]: 1(33.3)
- MCyR [7]: 3(100)
- Maintained MCyR [7]: 1(33.3)
- Maintained MMR [7]: 0
- Achieved MCyR [8]: 1(50.0)
- Achieved MMR [8]: 2(100)
- MCyR [8]: 2(100)
- Maintained MCyR [8]: 1(50.0)
- Maintained MMR [8]: 0
- Achieved MCyR (prior ponatinib, Total ESC): 6(37.5)
- Achieved MMR (prior ponatinib, Total ESC): 8(50.0)
- MCyR (prior ponatinib, Total ESC): 11(68.8)
- Maintained MCyR (prior ponatinib, Total ESC): 5(31.3)
- Maintained MMR (prior ponatinib, Total ESC): 0
